Data reported in PMC7851014 (Investigational New Drugs, 2020).

How the values were obtained:
[1] = Ibrutinib and SMT-conjugate pharmacokinetics in human subjects (plasma of patients A and B); conditions: for Concentration: omitted (no group)
Protocol: (§1) For analysis, 200 μL acetonitrile containing the internal standards was added to 100 μL sample. After mixing and centrifuging, 200 μL supernatant was transferred, and thereafter the solvent was partially evaporated. Before the samples were analyzed by ultra-high-performance liquid chromatography with mass spectrometer detection [21], 100 μL of mobile phase (water:acetonitrile:formic acid, 90:10:0.1 (v:v:v)) was added.
(§2) When no time was available at all, the sample was omitted. […] Pharmacokinetic (PK) data was analyzed using the PKNCA package (version 0.8.1) [22] for the statistical software R (version 3.4.2) [23] and RStudio (version 1.1.383) [24].

ciPTEC [2] = conditions: ciPTEC, after 48 h
Protocol: Medium and cell lysate samples were taken at 1, 2, 3 and 4 h. Each time point was measured in duplicate. Preincubation (t0) analyte concentrations in medium were also analyzed.

[3] = human, in vivo
Protocol: as §1, §2

clinical [4] = conditions: human, in vivo
Protocol: as §1, §2

ciPTEC [5] = type: cell-based; conditions: 2 μM ibrutinib with efflux transporter inhibitors, 48 h
Protocol: Cytotoxicity was evaluated using a Presto-blue assay as follows: cells were incubated for 1 h with Presto-blue solution (100 μL/well) at 37 °C and […] read using a Jasco FP8300 fluorometer (Tokyo, Japan; excitation wavelength: 560 nm, emission wavelength: 590 nm).

clinical [6] = conditions: male, human, in vivo, 140 mg
Protocol: as §1
Time-concentration data of three patients were analyzed. […] When no time was available at all, the sample was omitted. […] Pharmacokinetic (PK) data was analyzed using the PKNCA package (version 0.8.1) [22] for the statistical software R (version 3.4.2) [23] and RStudio (version 1.1.383) [24].

## C=CC(=O)N1CCC[C@@H](n2nc(-c3ccc(Oc4ccccc4)cc3)c3c(N)ncnc32)C1 [Ibrutinib, reference compound]
[1]; human, in vivo, 420 mg, Concentration, patient A, sample ID 2, T 1.4 h, 1xdd 420mg, group abs
  concentration at 1.4 h: 6.6 nM
[1]; human, in vivo, 420 mg, Concentration, patient A, sample ID 5, T 0.5 h, 1xdd 420mg, group abs
  concentration at 0.5 h: 11.8 nM
[1]; human, in vivo, 420 mg, Concentration, patient A, sample ID 6, T 0.8 h, 1xdd 420mg, group abs
  concentration at 0.8 h: 14.6 nM
[1]; human, in vivo, 420 mg, Concentration, patient A, sample ID 8, T 22.7 h, 1xdd 420mg, group trough
  concentration at 22.7 h: 8.9 nM
[1]; human, in vivo, 420 mg, Concentration, patient A, sample ID 10, T 22.2 h, 1xdd 420mg, group trough
  concentration at 22.2 h: 7 nM
[1]; human, in vivo, 420 mg, Concentration, patient A, sample ID 11, T 22.6 h, 1xdd 420mg, group trough
  concentration at 22.6 h: 4.3 nM
[1]; human, in vivo, 420 mg, Concentration, patient A, sample ID 13, T 2.5 h, 1xdd 420mg, group max
  concentration at 2.5 h: 683 nM
[1]; human, in vivo, 420 mg, Concentration, patient A, sample ID 14, T 3.8 h, 1xdd 420mg, group max
  concentration at 3.8 h: 151 nM
[1]; human, in vivo, 420 mg, Concentration, patient A, sample ID 19, T 23.3 h, 1xdd 420mg, group trough
  concentration at 23.3 h: 5.5 nM
[1]; human, in vivo, 420 mg, Concentration, patient A, sample ID 21, T 0.8 h, 1xdd 420mg, group abs
  concentration at 0.8 h: 143 nM
[1]; human, in vivo, 560 mg, Concentration, patient A, sample ID 3, T 0.8 h, 1xdd 560mg, group abs
  concentration at 0.8 h: 3.5 nM
[1]; human, in vivo, 560 mg, Concentration, patient B, sample ID 4, T 2.8 h, 1xdd 560mg, group max
  concentration at 2.8 h: 234 nM
[1]; human, in vivo, 560 mg, Concentration, patient B, sample ID 7, T 4.1 h, 1xdd 560mg, group max
  concentration at 4.1 h: 360 nM
[1]; human, in vivo, 560 mg, Concentration, patient B, sample ID 9, T 4.4 h, 1xdd 560mg, group max
  concentration at 4.4 h: 192 nM
[1]; human, in vivo, 560 mg, Concentration, patient B, sample ID 12, T 2.4 h, 1xdd 560mg, group max
  concentration at 2.4 h: 551 nM
[1]; human, in vivo, 560 mg, Concentration, patient B, sample ID 17, T 3.9 h, 1xdd 560mg, group max
  concentration at 3.9 h: 578 nM
[1]; human, in vivo, 560 mg, Concentration, patient B, sample ID 20, T 3.8 h, 1xdd 560mg, group max
  concentration at 3.8 h: 196 nM
[1]; human, in vivo, 560 mg, Concentration, patient B, sample ID 23, T 4.1 h, 1xdd 560mg, group max
  concentration at 4.1 h: 497 nM
[1]; human, in vivo, 560 mg, Concentration, patient B, sample ID 24, T 4.4 h, 1xdd 560mg, group max
  concentration at 4.4 h: 323 nM
[1]; patient A, sample ID 15, T NA, 1xdd 420mg
  Concentration: 15.8 nM
[1]; patient A, sample ID 22, T NA, 1xdd 420mg
  Concentration: 0.9 nM
ciPTEC [2]
  ibrutinib metabolized: ca. 98%
[3]
  Cmax: 370 ± 180 (151–683) nM
  Ctrough: 6.4 ± 2 (4.3–8.9) nM
Clinical [4]
  Tmax: 2.6 h
ciPTEC [5]
  cell death: up to 50%
Clinical [6]
  AUC(0-t): 0.325 µM·h
